Laboratory results reported in PubChem BioAssay (NCI).
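Five concentrations, 48 hours, 96-well plates. GI50: concentration for 50% inhibition of growth. The concentration for full growth arrest is given as TGI.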

Legend:
Assay in all cases: NCI anticancer screen, dose series, 48 h
[1] = system: 786-0 renal
[2] = system: A498 renal
[3] = system: A549 NSCLC
[4] = system: ACHN renal
[5] = system: BT-549 breast
[6] = system: CAKI-1 renal
[7] = system: CCRF-CEM leukemia
[8] = system: COLO 205 colon
[9] = system: DU-145 prostate
[10] = system: EKVX NSCLC
[11] = system: HCC-2998 colon
[12] = system: HCT-116 colon
[13] = system: HCT-15 colon
[14] = system: HL-60(TB) leukemia
[15] = system: HOP-62 NSCLC
[16] = system: HOP-92 NSCLC
[17] = system: HS 578T breast
[18] = system: HT29 colon
[19] = system: IGROV1 ovarian
[20] = system: K-562 leukemia
[21] = system: KM12 colon
[22] = system: LOX IMVI melanoma
[23] = system: M14 melanoma
[24] = system: MALME-3M melanoma
[25] = system: MCF7 breast
[26] = system: MDA-MB-231 breast
[27] = system: MDA-MB-435
[28] = system: MDA-MB-468 breast
[29] = system: MOLT-4 leukemia
[30] = system: NCI-H226 lung
[31] = system: NCI-H23 lung
[32] = system: NCI-H460 lung
[33] = system: NCI-H522 lung
[34] = system: NCI/ADR-RES ovarian
[35] = system: OVCAR-3 ovarian
[36] = system: OVCAR-4 ovarian
[37] = system: OVCAR-5 ovarian
[38] = system: OVCAR-8 ovarian
[39] = system: PC-3 prostate
[40] = system: RPMI-8226 leukemia
[41] = system: RXF 393 renal
[42] = system: SF-268 CNS
[43] = system: SF-295 CNS
[44] = system: SF-539 CNS
[45] = system: SK-MEL-2 melanoma
[46] = system: SK-MEL-28 melanoma
[47] = system: SK-MEL-5 melanoma
[48] = system: SK-OV-3 ovarian
[49] = system: SN12C renal
[50] = system: SNB-19 CNS
[51] = system: SR leukemia
[52] = system: SW-620 colon
[53] = system: T-47D breast
[54] = system: TK-10 renal
[55] = system: U251 CNS
[56] = system: UACC-257 melanoma
[57] = system: UACC-62 melanoma
[58] = system: UO-31 renal

O=S(=O)(Nc1cccc(-n2cnc3cc(-c4ccc(O)cc4)ccc32)c1)C1CC1 was tested, and the GI50 [1] was 4700 nM, the TGI [1] was 16900 nM and the GI50 [2] was 3310 nM. For the same compound, the TGI [2] was 10400 nM, the GI50 [3] was 4040 nM and the TGI [3] was 17100 nM. For the same compound, the GI50 [4] was 4860 nM, the TGI [4] was 16800 nM and the GI50 [5] was 2590 nM. For the same compound, the TGI [5] was 12500 nM, the GI50 [6] was 3250 nM and the TGI [6] was 14600 nM. The GI50 [7] was 2620 nM, the TGI [7] was 14500 nM and the GI50 [8] was 3170 nM. For the same compound, the TGI [8] was 11100 nM, the GI50 [9] was 4190 nM and the TGI [9] was 15000 nM. It also gave a GI50 [10] of 6560 nM, a TGI [10] of 21600 nM and a GI50 [11] of 4400 nM. The TGI [11] was 19600 nM, the GI50 [12] was 2820 nM and the TGI [12] was 15300 nM. For the same compound, the GI50 [13] was 1620 nM, the TGI [13] was 14100 nM and the GI50 [14] was 1380 nM. It also gave a TGI [14] of 5630 nM, a GI50 [15] of 4630 nM and a TGI [15] of 19400 nM. For the same compound, the GI50 [16] was 1430 nM, the TGI [16] was 8430 nM and the GI50 [17] was 1930 nM. The TGI [17] was 7420 nM, the GI50 [18] was 2600 nM and the TGI [18] was 8590 nM. It also gave a GI50 [19] of 4580 nM, a TGI [19] of 17700 nM and a GI50 [20] of 546 nM. For the same compound, the TGI [20] was > 100000 nM, the GI50 [21] was 654 nM and the TGI [21] was 13200 nM. It also gave a GI50 [22] of 3140 nM, a TGI [22] of 14700 nM and a GI50 [23] of 2360 nM. The TGI [23] was 17600 nM, the GI50 [24] was 3540 nM and the TGI [24] was 18400 nM. It also gave a GI50 [25] of 1960 nM, a TGI [25] of 16800 nM and a GI50 [26] of 3400 nM. The TGI [26] was 20800 nM, the GI50 [27] was 311 nM and the TGI [27] was 1330 nM. It also gave a GI50 [28] of 1440 nM, a TGI [28] of 6580 nM and a GI50 [29] of 2010 nM. For the same compound, the TGI [29] was 14100 nM, the GI50 [30] was 6230 nM and the TGI [30] was 27800 nM. It also gave a GI50 [31] of 5040 nM, a TGI [31] of 20600 nM and a GI50 [32] of 3030 nM. It also gave a TGI [32] of 13000 nM, a GI50 [33] of 820 nM and a TGI [33] of 3660 nM. It also gave a GI50 [34] of 3520 nM, a TGI [34] of 36500 nM and a GI50 [35] of 2140 nM. The TGI [35] was 10300 nM, the GI50 [36] was 4030 nM and the TGI [36] was 17300 nM. The GI50 [37] was 6770 nM, the TGI [37] was 20600 nM and the GI50 [38] was 3230 nM. The TGI [38] was 14500 nM, the GI50 [39] was 3200 nM and the TGI [39] was 17000 nM. It also gave a GI50 [40] of 2830 nM, a TGI [40] of 9460 nM and a GI50 [41] of 2190 nM. The TGI [41] was 7700 nM, the GI50 [42] was 3790 nM and the TGI [42] was 17200 nM. The GI50 [43] was 2360 nM, the TGI [43] was 11400 nM and the GI50 [44] was 1530 nM. It also gave a TGI [44] of 6100 nM, a GI50 [45] of 2870 nM and a TGI [45] of 14500 nM. For the same compound, the GI50 [46] was 6680 nM, the TGI [46] was 20000 nM and the GI50 [47] was 3130 nM. It also gave a TGI [47] of 14100 nM, a GI50 [48] of 3840 nM and a TGI [48] of 13400 nM. It also gave a GI50 [49] of 3700 nM, a TGI [49] of 15100 nM and a GI50 [50] of 5950 nM. For the same compound, the TGI [50] was 19800 nM, the GI50 [51] was 391 nM and the TGI [51] was 65500 nM. It also gave a GI50 [52] of 1500 nM, a TGI [52] of 17400 nM and a GI50 [53] of 2730 nM. The TGI [53] was 14500 nM, the GI50 [54] was 8980 nM and the TGI [54] was 20900 nM. For the same compound, the GI50 [55] was 2650 nM, the TGI [55] was 13800 nM and the GI50 [56] was 10200 nM. For the same compound, the TGI [56] was 22000 nM, the GI50 [57] was 1620 nM and the TGI [57] was 14300 nM. It also gave a GI50 [58] of 2190 nM and a TGI [58] of 13900 nM.

CCN1CCN(Cc2ccc(C(=O)Nc3cccc(C#Cc4cccc5[nH]nc(N)c45)c3)cc2C(F)(F)F)CC1 showed a GI50 [1] of 1470 nM, a TGI [1] of 2840 nM and a GI50 [2] of 2540 nM. The TGI [2] was 4210 nM, the GI50 [3] was 1300 nM and the TGI [3] was 2600 nM. It also gave a GI50 [4] of 598 nM, a TGI [4] of 1870 nM and a GI50 [5] of 1640 nM. For the same compound, the TGI [5] was 3060 nM, the GI50 [6] was 1450 nM and the TGI [6] was 2780 nM. It also gave a GI50 [7] of 1600 nM, a TGI [7] of 3620 nM and a GI50 [8] of 1190 nM. It also gave a TGI [8] of 2720 nM, a GI50 [9] of 1530 nM and a TGI [9] of 3120 nM. It also gave a GI50 [10] of 1350 nM, a TGI [10] of 2790 nM and a GI50 [11] of 1300 nM. For the same compound, the TGI [11] was 2560 nM, the GI50 [13] was 721 nM and the TGI [13] was 2020 nM. It also gave a GI50 [15] of 1730 nM, a TGI [15] of 3640 nM and a GI50 [17] of 2140 nM. The TGI [17] was 6680 nM, the GI50 [18] was 1100 nM and the TGI [18] was 2450 nM. The GI50 [19] was 965 nM, the TGI [19] was 2480 nM and the GI50 [21] was 1660 nM. For the same compound, the TGI [21] was 3270 nM, the GI50 [22] was 739 nM and the TGI [22] was 1990 nM. The GI50 [24] was 509 nM, the TGI [24] was 1820 nM and the GI50 [25] was 1610 nM. For the same compound, the TGI [25] was 3050 nM, the GI50 [26] was 919 nM and the TGI [26] was 2140 nM. The GI50 [27] was 1230 nM, the TGI [27] was 2500 nM and the GI50 [28] was 1030 nM. It also gave a TGI [28] of 2320 nM, a GI50 [30] of 1190 nM and a TGI [30] of 3600 nM. For the same compound, the GI50 [31] was 1410 nM, the TGI [31] was 2760 nM and the GI50 [33] was 1100 nM. For the same compound, the TGI [33] was 2400 nM, the GI50 [34] was 1800 nM and the TGI [34] was 4040 nM. The GI50 [35] was 1180 nM, the TGI [35] was 2860 nM and the GI50 [36] was 1040 nM. The TGI [36] was 5300 nM, the GI50 [37] was 1470 nM and the TGI [37] was 3030 nM. The GI50 [38] was 1430 nM, the TGI [38] was 2800 nM and the GI50 [39] was 1300 nM. For the same compound, the TGI [39] was 2780 nM, the GI50 [40] was 1590 nM and the TGI [40] was 3920 nM. The GI50 [41] was 1100 nM, the TGI [41] was 2490 nM and the GI50 [42] was 1430 nM. The TGI [42] was 3330 nM, the GI50 [43] was 1430 nM and the TGI [43] was 2820 nM. For the same compound, the GI50 [44] was 533 nM, the TGI [44] was 1760 nM and the GI50 [45] was 1470 nM. It also gave a TGI [45] of 2930 nM, a GI50 [46] of 1630 nM and a TGI [46] of 3000 nM. For the same compound, the GI50 [47] was 1540 nM, the TGI [47] was 2900 nM and the GI50 [48] was 2190 nM. The TGI [48] was 4560 nM, the GI50 [49] was 1180 nM and the TGI [49] was 2480 nM. It also gave a GI50 [50] of 1950 nM, a TGI [50] of 3630 nM and a GI50 [51] of 1780 nM. The TGI [51] was 4590 nM, the GI50 [52] was 1230 nM and the TGI [52] was 2810 nM. It also gave a GI50 [53] of 2250 nM, a TGI [53] of 6180 nM and a GI50 [54] of 1890 nM. It also gave a TGI [54] of 3380 nM, a GI50 [55] of 1510 nM and a TGI [55] of 2850 nM. For the same compound, the GI50 [56] was 1470 nM, the TGI [56] was 2860 nM and the GI50 [57] was 1320 nM. The TGI [57] was 2620 nM, the GI50 [58] was 1430 nM and the TGI [58] was 2930 nM.
